Entries after “also recorded” stand apart in the source; their conditions may differ. Read-outs that look alike come from different tables or passages of the source.
How the values were obtained:
DU145 cell line = experiment: SRB cytotoxicity, DU145; format: cell-based, human; settings: DU145 (no AR), 144 h, up to 20 μM
Method: (§1) FIGS. 16-25: cytotoxic effect of compounds (R)-XXIII-2, (R)-XXIII-3, (R)-XXIII-4, (R)-XXIII-5, (R)-XXIII-6, (R)-XXIII-7, (R)-XXIII-8, (R)-XXIII-9, (R)-XXIII-10, (R)-XXIV-9 on PC-3 and DU-145 cell lines at different concentration (0.02, 0.2, 2, 20 μM) after 144 h exposure. On the x-axis is reported the concentration, while on the y-axis is reported the inhibition of the net growth (% net growth).
(§2) Sulforhodamine B (SRB) assay was used according to the method by Skehan et al. (JNCI, 1990). Briefly, cells were collected by trypsinization, counted and plated at a density of 5,000 cells/well in 96-well flat-bottomed microtiter plates (100 μl of cell suspension/well). In the chemosensitivity assay, experiments were run in octuplicate, and each experiment was repeated three times. The optical density (OD) of cells was determined at a wavelength of 490 nm by a colorimetric plate reader.
(§3) If ODtreated is above ODzero, treatment has induced a cytostatic effect, whereas if ODtreated is below ODzero, cell killing has occurred. The ODzero depicts the cell number at the moment of drug addition, the ODcontrol reflects the cell number in untreated wells and the ODtreated reflects the cell number in treated wells on the day of the assay.

[1] = biological target: T1, human androgen receptor (hAR) (Homo sapiens, UniProt P10275); experiment: hAR transactivation assay (ARE-luc) in Cos-7 cells; format: cell-based; settings: for agonistic activity on AR transcription, in words: compound alone, 10 nM to 1 μM or 10 μM; for inhibition of R1881-induced AR transcriptional activation (antagonistic activity), in words: compound 10 μM with 10 nM R1881
T1 construct: expressed in transfected cells; host or cells: Cos-7
T1 sequence (P10275 1-920): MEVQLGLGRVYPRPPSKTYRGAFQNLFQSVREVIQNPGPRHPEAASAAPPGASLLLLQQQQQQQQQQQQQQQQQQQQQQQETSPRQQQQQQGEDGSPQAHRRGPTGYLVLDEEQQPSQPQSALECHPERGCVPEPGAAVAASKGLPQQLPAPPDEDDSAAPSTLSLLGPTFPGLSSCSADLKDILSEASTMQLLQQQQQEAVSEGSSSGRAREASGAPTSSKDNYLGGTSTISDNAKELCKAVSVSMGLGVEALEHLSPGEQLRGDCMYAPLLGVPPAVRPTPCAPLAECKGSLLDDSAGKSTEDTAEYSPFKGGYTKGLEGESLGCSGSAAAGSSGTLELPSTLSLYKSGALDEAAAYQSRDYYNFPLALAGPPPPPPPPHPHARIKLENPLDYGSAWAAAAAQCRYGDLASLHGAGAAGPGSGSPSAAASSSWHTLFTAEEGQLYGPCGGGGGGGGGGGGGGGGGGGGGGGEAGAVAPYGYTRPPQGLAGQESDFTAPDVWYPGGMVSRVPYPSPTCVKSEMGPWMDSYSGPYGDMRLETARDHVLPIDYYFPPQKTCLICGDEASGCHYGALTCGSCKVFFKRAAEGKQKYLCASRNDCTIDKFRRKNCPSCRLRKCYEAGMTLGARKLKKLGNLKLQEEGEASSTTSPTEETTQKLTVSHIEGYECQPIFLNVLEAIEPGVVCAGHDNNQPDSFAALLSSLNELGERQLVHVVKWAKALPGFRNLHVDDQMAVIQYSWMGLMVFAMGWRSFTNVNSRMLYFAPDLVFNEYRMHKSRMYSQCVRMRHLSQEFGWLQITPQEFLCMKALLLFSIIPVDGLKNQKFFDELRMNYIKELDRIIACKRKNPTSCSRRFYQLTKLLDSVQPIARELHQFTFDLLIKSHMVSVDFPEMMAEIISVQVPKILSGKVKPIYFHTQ
Source text: The cDNA coding hAR was cloned into the pSG5 expression vector as reported previously [Chang, C. S., J. Kokontis, and S. T. Liao 1988 Molecular cloning of human and rat complementary DNA encoding androgen receptors Science 240:324-326].
The 3416 construct (ARE-Luc), containing four copies of the wild-type slp-HRE2 (5′-TGGTCAgccAGTTCT-3′) was cloned in the NheI site in pTK-TATA-Luc [Verrijdt, G., E. Schoenmakers, A. Haelens, B. Peeters, G. Verhoeven, W. Rombauts, and F. Claessens 2000 Change of specificity mutations in androgen selective enhancers J. Biol. Chem. 275:12298-12305].
For androgen-stimulated transcriptional analysis, 32×10^4 Cos-7 cells were plated in phenol red-free DMEM containing 5% charcoal-stripped serum. After 48 h, the cells were transfected by Superfect (Qiagen) with 0.3 μg of 3416-pTK-TATA-Luc construct, together with 1.5 μg of either pSG5-empty plasmid or pSG5-hAR expressing plasmid. […] When indicated, the synthetic compounds were added alone to the cell medium. […] It was dissolved in 0.001% (final concentration) ethanol. Control cells were treated with the vehicle alone. Lysates were prepared and the luciferase activity was measured using a luciferase assay system (Promega). The results were corrected using CH110-expressed beta-galactosidase activity (Amersham Biosciences) and luciferase activity was expressed as fold induction. Results were obtained from two or three different experiments, each performed in duplicate. Mean and SEM are shown.

[2] = tested on: human hepatoblastoma cell line HepG2; experiment: Cytotoxic activity on HepG2 (hepato-toxicity); format: cell-based; settings: HepG2, up to highest concentration tested
Method: as §2, §3
FIG. 27-36 show the cytotoxic activity of the drugs on the human hepatoblastoma cell line HepG2. The authors evaluated in vitro the potential hepato-toxicity of some of the novel compounds on HepG2 cell line, a human hepatoblastoma cell line that retains the specialized function of normal hepatocytes [Knowles B B, Howe C C, Aden D P. Human hepatocellular carcinoma cell lines secretes the major plasma proteins and hepatitis B surface antigen. Science 1980, 209:497-499; Aden D P, Vogel A, Plortkin S, Damjanov I, Knowles B B. Controlled synthesis of HBS Ag in a differentiated human liver carcinoma-derived cell line. Nature, 1979, 282:615-616].

LNCaP-AR cells = experiment: SRB in vitro chemosensitivity assay, LNCaP-AR; format: cell-based; settings: for GI50: Homo sapiens, LNCaP/AR; for GI50 / cytotoxic effect (cytostatic / cytocidal), in words: 144 h; for LC50: LNCaP-AR cells, 144 h exposure; for LC50 / cytotoxic effect (cytostatic / cytocidal), in words: up to 20 μM; for cytotoxic effect (cytostatic / cytocidal), in words: LNCaP-AR
Method: (§4) The cell lines were maintained as a monolayer at 37° C. and subcultured weekly. Culture medium was composed of RPMI 1640 supplemented with 10% fetal calf serum and 1% glutamine (Mascia Brunelli s.p.a., Milan, Italy). Cells were used in the exponential growth phase in all the experiments.
(§5) Compounds were dissolved in acetone or DMSO (AITES) ([…]) and stored at −20° C. The cell culture containing acetone at the highest concentration was used as the control.
as §2, §3
(§6) FIGS. 2-11 show the cytotoxic activity of the derivative compounds of the invention on the LNCaP and LNCaP-AR cell lines. The authors examined the antitumour activity of the compounds for which the synthesis is described above, in the hormone-sensitive prostate cancer cell line LNCaP and in its derivative cell line LNCaP-AR, expressing high level of AR and with hormone refractory prostate cancer (HRPC) features. The novel compounds were tested at the increasing concentrations of […], 0.2, 2.0, and 20.0 μM. The highest dose used was chosen on the basis of the clinically achievable peak plasma concentration reported in the literature for bicalutamide (Cockshott I D. Clin Pharmacokinet. 2004; 43(13): 855-78). After 144-hr exposure time the cytotoxic effect of the molecules was calculated according to the method of Monks et al. (Monks A, Scudiero D, Skehan P, et al. Feasibility of a high-flux anticancer drug screen using a diverse panel of cultured human tumor cell lines. J Natl Cancer Inst. 1991; 83: 757-66.)

LNCaP cells = experiment: SRB in vitro chemosensitivity assay, LNCaP; format: cell-based
Method: as §4, §5, §2, §3, §6

PC-3 cell line = experiment: SRB cytotoxicity, PC-3; format: cell-based, human; settings: PC-3 (no AR), 144 h, up to 20 μM
Method: as §1, §2, §3

[3] = LNCaP cells, 144 h exposure, up to 20 μM

| SMILES | cytotoxic activity, in words (DU145 cell line) | agonistic activity on AR transcription, in words [1] | hepato-toxicity, in words [2] | GI50 (LNCaP-AR cells) [µM] | LC50 (LNCaP-AR cells) | cytotoxic effect (cytostatic / cytocidal), in words (LNCaP-AR cells) | GI50 (LNCaP cells; Homo sapiens, LNCaP, 144 h) [µM] | LC50 (LNCaP cells; [3]) | cytotoxic effect (cytostatic / cytocidal), in words (LNCaP cells; LNCaP, 144 h, up to 20 μM) | cytotoxic activity, in words (PC-3 cell line) | inhibition of R1881-induced AR transcriptional activation (antagonistic activity), in words [1] | cytotoxic activity, in words (DU145 cell line; listed as (R)-XIII-5) | LC50 (LNCaP cells; Homo sapiens, LNCaP, 144 h, read-out: LC50, LNCaP cells, 144 h exposure, up to 20 μM) [µM] | LC50 (LNCaP cells; read-out: LC50, LNCaP cells, 144 h exposure, up to 20 μM) [µM] | cytotoxic activity, in words (PC-3 cell line; listed as (R)-XIII-5) |
| --- | --- | --- | --- | --- | --- | --- | --- | --- | --- | --- | --- | --- | --- | --- | --- |
| N#Cc1ccc(NC(=O)[C@@](O)(CS(=O)(=O)c2ccc(F)cc2)c2ccccc2)cc1C(F)(F)F [(R)-XXIII-8] | negligible cytotoxic activity | does not increase the transcriptional activity of AR | did not display toxicity | 11.6 | n.r. | suppress completely the cell growth | 11.8 | n.r. | suppress completely the cell growth | negligible cytotoxic activity | – | – | – | – | – |
| N#Cc1ccc(NC(=O)[C@](O)(Cc2ccccc2)CS(=O)(=O)c2ccc(F)cc2)cc1C(F)(F)F [(R)-XXIII-3] | negligible cytotoxic activity | do not exhibit agonistic activity | did not display toxicity | 6.2 | n.r. | suppress completely the cell growth | 1.8 | n.r. | suppress completely the cell growth | negligible cytotoxic activity | A more robust inhibition | – | – | – | – |
| N#Cc1ccc(NC(=O)[C@](O)(Cc2ccc(C(F)(F)F)cc2)CS(=O)(=O)c2ccc(F)cc2)cc1C(F)(F)F [(R)-XXIII-5] | – | do not exhibit agonistic activity | did not display toxicity | 1.9 | n.r. | cell killing activity | 2 | – | cell killing activity | – | A more robust inhibition | negligible cytotoxic activity; also recorded: reduced cytotoxic propriety | 16.2 to 20 | 16.2 | negligible cytotoxic activity; also recorded: reduced cytotoxic propriety |
